Like-named read-outs stand apart in the source and are kept apart here. A value given as a limit tells only on which side of the number the result lay.

We go through 13 compounds from patent publication US11974991B1, “Adenosine receptor activity of methyl/ethyl 3-(substituted benzoyl)-6,8-dimethylindolizine-2-substituted-1-carboxylates” (KING FAISAL UNIVERSITY, priority 2023, dated 2024).

The target of one test is human A3R (Homo sapiens (Human), UniProt P0DMS8). The experiment in a line: Displacement of specific [3H]-HEMADO binding at human A3R expressed in CHO cells. The source says: (§1) Table 1 below reports the affinity and antagonist values of compounds KNV1-KNV13. In particular, the binding affinity is expressed in Ki and the antagonistic activity in IC50.
Sequence of human A3R (P0DMS8 whole entry): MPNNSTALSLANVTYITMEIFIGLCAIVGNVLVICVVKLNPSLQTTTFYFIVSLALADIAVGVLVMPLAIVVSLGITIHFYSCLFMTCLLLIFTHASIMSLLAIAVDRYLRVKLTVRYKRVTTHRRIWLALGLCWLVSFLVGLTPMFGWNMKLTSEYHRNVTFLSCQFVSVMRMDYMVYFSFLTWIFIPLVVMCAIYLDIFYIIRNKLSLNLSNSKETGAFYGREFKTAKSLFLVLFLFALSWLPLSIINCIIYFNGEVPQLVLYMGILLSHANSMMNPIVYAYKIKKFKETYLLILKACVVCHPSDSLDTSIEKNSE
A further test deals with human A1R (Homo sapiens (Human), UniProt P30542). The experiment in a line: Displacement of specific [3H]-CCPA binding at human A1R expressed in CHO cells. As to conditions: for Ki: [3H]-CCPA displacement, CHO cells, means ± SE, read-out: hA1R (Ki nM).
Sequence of human A1R (P30542 whole entry): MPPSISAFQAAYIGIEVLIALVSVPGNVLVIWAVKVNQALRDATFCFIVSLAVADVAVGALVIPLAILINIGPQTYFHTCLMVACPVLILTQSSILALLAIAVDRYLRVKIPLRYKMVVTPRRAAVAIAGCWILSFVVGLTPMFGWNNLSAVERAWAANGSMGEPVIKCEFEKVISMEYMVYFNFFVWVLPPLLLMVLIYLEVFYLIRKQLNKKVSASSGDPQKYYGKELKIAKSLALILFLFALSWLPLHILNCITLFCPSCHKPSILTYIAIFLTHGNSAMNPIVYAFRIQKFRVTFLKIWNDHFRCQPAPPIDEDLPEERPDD
Source text: as §1

The target of another test is hA2BR (Homo sapiens (Human), UniProt P29275). The experiment in a line: Inhibition of NECA-stimulated adenylyl cyclase activity / cAMP accumulation (GloSensor cAMP assay) in CHO cells expressing hA2BR. As to conditions: for IC50: inhibiting NECA-stimulated adenylyl cyclase activity, CHO cells, means ± SE. Type of test: cell-based. How it is done: (§2) The activity of the present compounds was evaluated using the GloSensor™ cAMP assay, which is a new non-radioactive method offering a simple approach to monitor GPCR activity through changes in the intracellular cAMP concentration. This assay uses a mutant form of Photinus pyralis luciferase into which a cAMP-binding protein moiety has been inserted. The binding with cAMP triggers a biosensor conformational change that leads to an increase of light output allowing to evaluate the activity of ligands at the receptor under study. Following pre-equilibration with a substrate, cells stably expressing both the receptor of interest and the biosensor can be used to evaluate GPCR function enabling easy kinetic measurements of cAMP accumulation or turnover in living cells.
Sequence of hA2BR (P29275 whole entry): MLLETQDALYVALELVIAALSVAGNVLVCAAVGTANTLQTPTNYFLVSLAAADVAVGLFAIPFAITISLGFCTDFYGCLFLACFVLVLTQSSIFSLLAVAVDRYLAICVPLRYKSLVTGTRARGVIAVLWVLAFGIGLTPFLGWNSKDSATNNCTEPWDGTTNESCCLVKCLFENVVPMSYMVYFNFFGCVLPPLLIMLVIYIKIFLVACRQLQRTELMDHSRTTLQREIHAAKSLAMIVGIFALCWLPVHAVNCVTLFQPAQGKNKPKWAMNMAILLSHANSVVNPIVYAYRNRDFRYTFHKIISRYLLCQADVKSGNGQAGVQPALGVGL
The antagonist profile of the compounds on A2BAR was evaluated by assessing their ability to counteract the agonist NECA-induced increase of cAMP accumulation. After 2 hrs of equilibration in reaction medium cells were incubated in 384 well plate (10 min at room temperature) with 3 μl of different antagonist concentrations and then treated with 3 μl of a fixed dose of NECA. After further 10 minutes of incubation various luminescence reads were performed at different incubation times.

In another test the target is human A2AR (Homo sapiens (Human), UniProt P29274). The experiment in a line: Displacement of specific [3H]-NECA binding at human A2AR expressed in CHO cells. As to conditions: for Ki: [3H]-NECA displacement, CHO cells, means ± SE, read-out: hA2AR (Ki nM).
Sequence of human A2AR (P29274 whole entry): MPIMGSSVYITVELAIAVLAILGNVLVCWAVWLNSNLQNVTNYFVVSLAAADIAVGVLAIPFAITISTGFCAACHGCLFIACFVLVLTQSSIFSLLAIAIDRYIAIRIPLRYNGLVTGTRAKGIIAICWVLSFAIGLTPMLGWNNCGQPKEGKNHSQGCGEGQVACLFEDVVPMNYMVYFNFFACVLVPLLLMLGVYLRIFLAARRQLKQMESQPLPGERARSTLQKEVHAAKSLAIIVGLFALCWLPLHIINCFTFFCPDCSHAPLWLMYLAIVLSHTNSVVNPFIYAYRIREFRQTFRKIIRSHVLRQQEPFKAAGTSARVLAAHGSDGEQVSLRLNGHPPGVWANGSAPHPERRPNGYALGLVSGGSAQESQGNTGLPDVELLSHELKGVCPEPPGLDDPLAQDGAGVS
Source text: as §1

The next test addresses hA3R (Homo sapiens (Human), UniProt P0DMS8). Put plainly: Counteracting NECA-induced decrease of cAMP accumulation (GloSensor cAMP assay) in CHO cells expressing hA3R. Type of test: cell-based. On the procedure:
as §2
The antagonist profile of the compounds on A3AR was studied by assessing their ability to counteract the NECA-induced decrease of cAMP accumulation. After 2 hrs of equilibration in reaction medium the cells were incubated in a 384 well plate (10 min at room temperature) with 3 μl of different antagonist concentrations and then treated with 3 μl of a fixed dose of agonist. 1 μl of Forskolin 500 μM, final concentration 10 μM, were added 10 minutes after agonist and various luminescence reads were performed at different incubation times.
For orientation: cAMP levels reflect the balance of adenylyl cyclase and phosphodiesterase activity.

The mark [1] stands for this setting: [3H]-HEMADO displacement, CHO cells, means ± SE, read-out: hA3R (Ki nM).
Where [2] appears, read: counteracting NECA-induced decrease of cAMP accumulation, CHO cells expressing hA3R, means ± SE, read-out: hA2AR (IC50 nM) [footnote e: hA3R].

Sequence of hA3R (P0DMS8 whole entry): as the sequence (P0DMS8 whole entry) above

A word on the Ki: it is the equilibrium dissociation constant of an inhibitor or competing ligand from its target. As a reminder, the IC50 is the concentration that gives 50% inhibition. For the compound `CCOC(=O)c1cc(C(=O)c2ccc(Cl)cc2)n2cc(C)cc(C)c12` [KNV1, Ethyl 3-(4-chlorobenzoyl)-6,8-dimethylindolizine-1-carboxylate], the Ki at human A3R (setting [1]) was 591 ± 112 nM; on human A1R, more than 30000 nM; at human A2AR, more than 30000 nM. For the same compound, the IC50 is more than 30000 nM at hA2BR and 1510 ± 351 nM on hA3R (setting [2]).

For `COC(=O)c1c(C(=O)OC)c2c(C)cc(C)cn2c1C(=O)c1ccc(OC)cc1` [KNV2, Dimethyl 3-(4-methoxybenzoyl)-6,8-dimethylindolizine-1,2-dicarboxylate], the Ki on human A3R (setting [1]) amounted to 1910 ± 45 nM; on human A1R, 1330 ± 217 nM; on human A2AR, 4820 ± 243 nM. Besides, the figures for the IC50 at hA2BR and on hA3R (setting [2]) were more than 30000 nM and 7900 ± 1080 nM, respectively.

On to `COC(=O)c1c(C(=O)OC)c2c(C)cc(C)cn2c1C(=O)c1ccc(Br)cc1` [KNV4, Dimethyl 3-(4-bromobenzoyl)-6,8-dimethylindolizine-1,2-dicarboxylate], for which the values for the Ki on human A3R (setting [1]), on human A1R and at human A2AR were 2160 ± 468 nM, 6980 ± 330 nM and 5540 ± 998 nM, respectively. In addition, the IC50 is more than 30000 nM against hA2BR and 9580 ± 1080 nM on hA3R (setting [2]).

`CCOC(=O)c1cc(C(=O)c2ccccc2[N+](=O)[O-])n2cc(C)cc(C)c12` [KNV6, Ethyl 6,8-dimethyl-3-(2-nitrobenzoyl)indolizine-1-carboxylate]: the Ki on human A3R (setting [1]) was 930 ± 159 nM; on human A1R, more than 30000 nM; at human A2AR, 7970 ± 1660 nM. In addition, the IC50 is more than 30000 nM against hA2BR and 3420 ± 879 nM on hA3R (setting [2]).

As to `CCOC(=O)c1cc(C(=O)c2ccc(C)cc2)n2cc(C)cc(C)c12` [KNV7, Ethyl 6,8-dimethyl-3-(4-methylbenzoyl)indolizine-1-carboxylate], the values for the Ki on human A3R (setting [1]), on human A1R and on human A2AR were 1070 ± 157 nM, more than 30000 nM and 4970 ± 508 nM, respectively. Moreover, the IC50 was more than 30000 nM at hA2BR and 4210 ± 1150 nM at hA3R (setting [2]).

As to `COC(=O)c1c(C(=O)OC)c2c(C)cc(C)cn2c1C(=O)c1ccc(C)cc1` [KNV8, Dimethyl 6,8-dimethyl-3-(4-methylbenzoyl)indolizine-1,2-dicarboxylate], the Ki on human A3R (setting [1]) was 3090 ± 6 nM; at human A1R, 2390 ± 171 nM; on human A2AR, 1609 ± 13 nM. In addition, the IC50 against hA2BR is more than 30000 nM; at hA3R (setting [2]) it was 11000 ± 2050 nM.

With `CCOC(=O)c1cc(C(=O)c2ccc(OC)cc2)n2cc(C)cc(C)c12` [KNV9, Ethyl 3-(4-methoxybenzoyl)-6,8-dimethylindolizine-1-carboxylate], the Ki is 305 ± 57 nM on human A3R (setting [1]), more than 30000 nM on human A1R and more than 30000 nM at human A2AR. Further, the IC50 against hA2BR is more than 30000 nM; at hA3R (setting [2]), 865 ± 105 nM.

Turning to `COC(=O)c1c(C(=O)OC)c2c(C)cc(C)cn2c1C(=O)c1ccc(Cl)cc1` [KNV10, Dimethyl 3-(4-chlorobenzoyl)-6,8-dimethylindolizine-1,2-dicarboxylate], the Ki at human A3R (setting [1]) was found to be 924 ± 127 nM; at human A1R, 5610 ± 1080 nM; on human A2AR it was 6880 ± 705 nM. In addition, the IC50 was more than 30000 nM at hA2BR and 4210 ± 521 nM at hA3R (setting [2]).

As for `CCOC(=O)c1cc(C(=O)c2ccc(C#N)cc2)n2cc(C)cc(C)c12` [KNV11, Ethyl 3-(4-cyanobenzoyl)-6,8-dimethylindolizine-1-carboxylate], the Ki at human A3R (setting [1]) was 8540 ± 1500 nM; on human A1R, more than 30000 nM; at human A2AR, more than 30000 nM. Further, the IC50 against hA2BR was more than 30000 nM; at hA3R (setting [2]), 25900 ± 4200 nM.

Consider `COC(=O)c1c(C(=O)OC)c2c(C)cc(C)cn2c1C(=O)c1ccc(C#N)cc1` [KNV12, Dimethyl 3-(4-cyanobenzoyl)-6,8-dimethylindolizine-1,2-dicarboxylate], for which the Ki on human A3R (setting [1]) was 12100 ± 1700 nM; on human A1R, more than 30000 nM; on human A2AR, more than 30000 nM. For the same compound, the IC50 against hA2BR was more than 30000 nM; on hA3R (setting [2]) it was 41100 ± 9220 nM.

Take `CCOC(=O)c1cc(C(=O)c2cc(C(F)(F)F)cc(C(F)(F)F)c2)n2cc(C)cc(C)c12` [KNV13, Ethyl 3-(3,5-bis(trifluoromethyl)benzoyl)-6,8-dimethylindolizine-1-carboxylate]: the Ki on human A3R (setting [1]) is 7140 ± 130 nM; on human A1R, more than 30000 nM; on human A2AR, more than 30000 nM. For the same compound, the results for the IC50 against hA2BR and at hA3R (setting [2]) were more than 30000 nM and 28000 ± 5220 nM, respectively.

“Ethyl 3-(4-bromobenzoyl)-6,8-dimethylindolizine-1-carboxylate [KNV3]”: the Ki on human A3R (setting [1]), on human A1R and on human A2AR was more than 30000 nM in each case. For the same compound, the IC50 against hA2BR and on hA3R (setting [2]) was more than 30000 nM in each case.

Take “Ethyl 3-(4-fluorobenzoyl)-6,8-dimethylindolizine-1-carboxylate [KNV5]”: the Ki on human A3R (setting [1]) was 213 ± 16 nM; at human A3R (unit inferred, read-out: Ki towards A3AR), 213 nM; at human A1R, more than 30000 nM; at human A2AR, more than 30000 nM. The “activity in the other subtypes (A1)” value on human A1R was “not active”. At hA2BR, the “activity in the other subtypes (A2B)” value was “not active”. Also, the IC50 at hA2BR is more than 30000 nM; at hA3R (setting [2]), 196 ± 55 nM; on hA3R (unit inferred, read-out: IC50, antagonistic activity on A3AR), 196 nM. At human A2AR, the “activity in the other subtypes (A2A)” value is “not active”.
